One assay addresses RET kinase V804M (Homo sapiens, UniProt P07949, V804M). The assay can be described thus: RET Enzyme Assay (CisBio HTRF KinEASE-TK), V804M. In kind it is biochemical. Conditions: read-out: RET V804M Enz FRET IC50.
The target in assay [1] is T1, HEK-293 cells expressing a Kif5b-RET fusion protein (Homo sapiens, UniProt P07949).
T1 construct: KIF5B (N-terminal portion incl. coiled-coil); expressed in transfected cells; host or cells: HEK-293; the other entry of the earlier key: KIF5B (P33176, Kinesin-1 heavy chain)
T1 sequence (P07949 713-1063 limits assumed): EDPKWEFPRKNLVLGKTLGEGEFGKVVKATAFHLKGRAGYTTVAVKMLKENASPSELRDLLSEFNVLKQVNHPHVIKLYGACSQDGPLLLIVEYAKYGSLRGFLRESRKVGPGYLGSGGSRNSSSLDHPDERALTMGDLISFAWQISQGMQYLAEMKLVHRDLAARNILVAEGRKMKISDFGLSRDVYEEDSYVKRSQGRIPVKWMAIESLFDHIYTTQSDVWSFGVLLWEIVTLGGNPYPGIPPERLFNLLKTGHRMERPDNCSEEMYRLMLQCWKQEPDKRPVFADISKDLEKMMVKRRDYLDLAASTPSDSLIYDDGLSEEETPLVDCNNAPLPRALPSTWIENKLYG
The assay can be described thus: RET Cell Assay (phospho-RET Tyr1062). In kind it is cell-based. Conditions: HEK-293 Kif5b-RET, 1 hour incubation, phospho-RET normalized to GAPDH; read-out: KIF5B-RET pTYR1062 Cell IC50. The method, then:
(§1) The cellular potency of compounds inhibiting RET kinase were determined in HEK-293 cells expressing a Kif5b-RET fusion protein. Briefly, HEK-293 cells expressing a Kif5b-RET fusion protein were plated at 50K cells/well in 96 well poly-D-Lysine coated plates the day prior to the assay. The cells were incubated for 1 hour with test compound in DMEM (Dulbecco's Modified Eagle Medium) at a final DMSO concentration of 0.5%. […] After 1 hour the media was removed, the cells were fixed with 3.8% formaldehyde for 20 min, washed with PBS, and permeabilized for 10 min with 100% methanol. The plates were then washed with PBS-0.05% Tween20, and blocked with LI-COR Blocking solution (LI-COR Catalog No. 927-40000) for 1 hour. Plates were washed with PBS-0.05% Tween20, then incubated with anti-phospho-RET (Tyr1062) (Santa Cruz Catalog No. sc-20252-R) antibody and anti-GAPDH (Millipore Catalog No. MAB374) antibody for 2 hours. The plates were washed with PBS-0.05% Tween20, and incubated with anti-rabbit 680 (Molecular Probes Catalog No. A21109) and anti-mouse 800 (LI-COR Catalog No. 926-32210) secondary antibodies for 1 hour. All antibodies were diluted in LI-COR Block containing 0.05% Tween. The plates were washed with PBS-0.05% Tween20,100 μL PBS is added to each well, and the plates were read on a LI-COR Aerius fluorescent plate reader. The phospho-RET signal was normalized to the GAPDH signal. […] The POC values were fit to a 4 parameter logistic curve. The IC50 value is the point where the curve crosses 50 POC.

For assay [2], the target named is T2, HEK-293 cells expressing a G810S mutant RET Kif5b-RET fusion protein (Homo sapiens, UniProt P07949, G810S).
T2 construct: KIF5B (N-terminal portion incl. coiled-coil); expressed in transfected cells; host or cells: HEK-293
T2 sequence (P07949 713-1063 G810S limits assumed): T1 sequence (P07949 713-1063 limits assumed) with G98S
The assay can be described thus: RET G810S Mutant Cell Assay (phospho-RET Tyr1062). Conditions: HEK-293 Kif5b-RET G810S, 1 hour incubation, phospho-RET normalized to GAPDH. In kind it is cell-based. The method, then:
as §1, with “expressing a G810R or G810S mutant RET Kif5b-RET fusion” for “expressing a Kif5b-RET fusion”, “μL PBS was added to” for “μL PBS is added to”, “POC values are fit to” for “POC values were fit to”

The target in the next assay is RET kinase Wild Type (Homo sapiens, UniProt P07949). The assay is described as follows: biochemical.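 Further: HTRF kinase activity assay on RET enzyme, 1 h reaction at 22 °C, dual-wavelength readout as percent of control, DMSO-only wells as 100%, pre-quenched reactions as 0%.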
Chain of RET kinase Wild Type (P07949 29-1114): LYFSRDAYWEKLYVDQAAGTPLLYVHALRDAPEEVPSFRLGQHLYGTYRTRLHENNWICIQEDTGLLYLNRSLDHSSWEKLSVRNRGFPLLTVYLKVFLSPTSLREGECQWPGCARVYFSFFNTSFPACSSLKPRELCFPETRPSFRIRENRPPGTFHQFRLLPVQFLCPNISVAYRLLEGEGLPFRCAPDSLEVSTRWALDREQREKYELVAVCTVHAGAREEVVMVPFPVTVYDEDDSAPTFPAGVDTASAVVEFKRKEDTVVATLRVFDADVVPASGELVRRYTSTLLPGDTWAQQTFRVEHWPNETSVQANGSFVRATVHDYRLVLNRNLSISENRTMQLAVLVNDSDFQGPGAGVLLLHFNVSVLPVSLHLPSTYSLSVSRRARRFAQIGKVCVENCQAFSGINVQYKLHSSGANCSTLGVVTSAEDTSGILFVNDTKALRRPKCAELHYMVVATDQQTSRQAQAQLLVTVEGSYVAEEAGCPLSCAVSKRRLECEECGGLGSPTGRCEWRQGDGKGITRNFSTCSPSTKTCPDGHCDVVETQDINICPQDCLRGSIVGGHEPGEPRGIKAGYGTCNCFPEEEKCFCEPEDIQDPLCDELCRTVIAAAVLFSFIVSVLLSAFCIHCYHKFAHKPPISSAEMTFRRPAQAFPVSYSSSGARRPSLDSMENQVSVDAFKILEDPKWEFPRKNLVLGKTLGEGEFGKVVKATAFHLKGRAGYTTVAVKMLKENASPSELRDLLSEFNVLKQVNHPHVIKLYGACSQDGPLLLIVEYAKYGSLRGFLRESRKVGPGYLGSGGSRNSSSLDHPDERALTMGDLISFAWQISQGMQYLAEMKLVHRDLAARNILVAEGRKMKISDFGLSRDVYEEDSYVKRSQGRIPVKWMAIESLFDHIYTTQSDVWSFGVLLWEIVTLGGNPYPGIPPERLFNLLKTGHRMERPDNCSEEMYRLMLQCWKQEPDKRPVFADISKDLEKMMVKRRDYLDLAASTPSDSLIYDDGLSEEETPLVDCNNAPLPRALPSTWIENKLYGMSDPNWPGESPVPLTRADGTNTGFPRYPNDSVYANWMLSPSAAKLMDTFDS
The target of a further assay is G810R mutant RET kinase (Homo sapiens, UniProt P07949, G810R). The assay is described as follows: biochemical.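 Further: HTRF KinEASE-TK enzymatic assay with 1 nM recombinant RET G810R, 1 h at 22 °C, dual-wavelength ratiometric readout, 100% control without compound, 0% from pre-quenched reactions.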
Chain of G810R mutant RET kinase (P07949 29-1114 G810R): as the sequence (P07949 29-1114) above, with G782R counted along it
For another assay, the target named is G810S mutant RET kinase (Homo sapiens, UniProt P07949, G810S). The assay can be described thus: biochemical.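 Further: HTRF KinEASE-TK kinase assay with recombinant enzyme, 1 h at 22 °C, dual-wavelength ratiometric read-out, percent of control (DMSO-only = 100, pre-quenched reaction = 0).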
Chain of G810S mutant RET kinase (P07949 29-1114 G810S): as the sequence (P07949 29-1114) above, with G782S counted along it
For assay [3], the target named is T3, HEK-293 cells expressing a G810R mutant RET Kif5b-RET fusion protein (Homo sapiens, UniProt P07949, G810R).
T3 construct: KIF5B (N-terminal portion incl. coiled-coil); expressed in transfected cells; host or cells: HEK-293; the other entry of the earlier key: KIF5B (P33176, Kinesin-1 heavy chain)
T3 sequence (P07949 713-1063 G810R limits assumed): T1 sequence (P07949 713-1063 limits assumed) with G98R
The assay is described as follows: RET G810R Mutant Cell Assay (phospho-RET Tyr1062). In kind it is cell-based. Conditions: HEK-293 Kif5b-RET G810R, 1 hour incubation, phospho-RET normalized to GAPDH. How it is done:
as §1, with “expressing a G810R or G810S mutant RET Kif5b-RET fusion” for “expressing a Kif5b-RET fusion”, “μL PBS was added to” for “μL PBS is added to”, “POC values are fit to” for “POC values were fit to”

The record followed here is patent US11964988B2, “Fused heterocyclic compounds as RET kinase inhibitors” (ARRAY BIOPHARMA INC., priority 2018, dated 2024).

Residue numbers refer to the chain shown, from its start. pIC50: −log10 of the molar value.

Chain of RET kinase V804M (P07949 29-1114 V804M): as the sequence (P07949 29-1114) above, with V776M counted along it
Experimental for RET kinase Wild Type: The potency of compounds inhibiting several different RET kinase forms (Wild Type, V804M, G810R, & G810S) were determined using CisBio's HTRF® KinEASE™-TK assay technology. […] After a 1 hour incubation at 22° C., the extent of reaction was determined using a PerkinElmer EnVision multimode plate reader via HTRF dual wavelength detection, and the percent of control (POC) was calculated using a ratiometric emission factor. One hundred POC was determined using DMSO only samples (no compound present), and 0 POC was determined using pre-quenched control reactions.

In general, pIC50 refers to −log10 of the IC50, conventionally taken in molar units. Regarding `Nc1ncnc2c1c1c(n2C2CCC(O)C2)CCC(=O)c2c-1noc2C1CC1` (mixture of isomers) [Example 128, 11-Amino-3-cyclopropyl-7-(3-hydroxycyclopentyl)-6,7-dihydroisoxazolo[4″,3″:6′,7′]cyclohepta[1′,2′:4,5]pyrrolo[2,3-d]pyrimidin-4(5H)-one 2,2,2-trifluoroacetate], the negative logarithm of the IC50 (pIC50) on RET kinase V804M was 6.46; in assay [1], 6.80; in assay [2] it was 6.36; at RET kinase Wild Type, 7.06; against G810R mutant RET kinase, 7.01; against G810S mutant RET kinase, 6.80.

In the case of `CC(C)n1c2c(c3c(N)ncnc31)-c1noc(C3CC3)c1CN(S(C)(=O)=O)C2` [Example 35, 3-cyclopropyl-7-isopropyl-5-(methylsulfonyl)-4,5,6,7-tetrahydroisoxazolo[4,3-c]pyrimido[5′,4′:4,5]pyrrolo[3,2-e]azepin-11-amine 2,2,2-trifluoroacetate], the pIC50 on RET kinase V804M was 6.94; in assay [1] it was 7.46; in assay [3] it was 6.08; at RET kinase Wild Type, 7.33; against G810R mutant RET kinase, 6.91; against G810S mutant RET kinase, 6.96.

In the case of `CC(C)n1c2c(c3c(N)ncnc31)-c1ccc(C3CC3)cc1C(=O)NC2` [Example 47, 12-amino-3-cyclopropyl-8-isopropyl-7,8-dihydrobenzo[c]pyrimido[5′,4′:4,5]pyrrolo[3,2-e]azepin-5(6H)-one], the pIC50 at RET kinase V804M is 5.03; in assay [1], 6.87; in assay [3], 5.71; at RET kinase Wild Type, 6.95; at G810R mutant RET kinase, 6.57; at G810S mutant RET kinase, 6.52.

Consider `CNC(=O)c1ccc2cc3n(c2c1)C(=O)NCc1c-3c2c(N)ncnc2n1C(C)C` [Example 73, 1-Amino-5-isopropyl-N-methyl-8-oxo-5,6,7,8-tetrahydropyrimido[5″,4″:4′,5′]pyrrolo[2′,3′:5,6][1,3]diazepino[1,7-a]indole-11-carboxamide], for which the pIC50 in assay [1] is 4.86; in assay [2], 4.78; at RET kinase Wild Type, 6.27; against G810R mutant RET kinase, 5.56; on G810S mutant RET kinase, 5.61.

Consider `CC(C)n1c2c(c3c(N)ncnc31)-c1cc3ccc(C(=O)Nc4ccccn4)cc3n1CCC2` [Example 90, 1-amino-5-isopropyl-N-(pyridin-2-yl)-5,6,7,8-tetrahydropyrimido[5″,4″:4′,5′]pyrrolo[3′,2′: 3,4]azepino[1,2-a]indole-11-carboxamide], for which the negative-log IC50 (pIC50) in assay [1] was 6.65; in assay [2], 6.39; against RET kinase Wild Type, 6.45; at G810R mutant RET kinase, 5.98; at G810S mutant RET kinase, 5.80.

Consider `CC(C)n1c2c(c3c(N)ncnc31)-c1cc3ccc(C(=O)Nc4cnn(C)c4)cc3n1CCC2` [Example 93, 1-amino-5-isopropyl-N-(1-methyl-1H-pyrazol-4-yl)-5,6,7,8-tetrahydropyrimido[5″,4″:4′,5′]pyrrolo[3′,2′: 3,4]azepino[1,2-a]indole-11-carboxamide], for which the pIC50 in assay [1] is 6.00; in assay [2], 6.00; at RET kinase Wild Type, 5.90; against G810R mutant RET kinase, 5.72; against G810S mutant RET kinase it was 5.25.

Regarding `CC(C)n1c2c(c3c(N)ncnc31)-c1cc3ccc(C(=O)Nc4ccn(-c5ccccc5)n4)cc3n1CCC2` [Example 100, 1-amino-5-isopropyl-N-(1-phenyl-1H-pyrazol-3-yl)-5,6,7,8-tetrahydropyrimido[5″,4″:4′,5′]pyrrolo[3′,2′: 3,4]azepino[1,2-a]indole-11-carboxamide], the pIC50 was 5.54 on RET kinase V804M; 8.00 in assay [1]; 7.82 in assay [2]; 6.63 against RET kinase Wild Type; 5.79 against G810R mutant RET kinase; 6.04 on G810S mutant RET kinase.

On to `CC(C)n1c2c(c3c(N)ncnc31)-c1c(Cl)c3ccc(C(=O)NC4CC4)cc3n1CCC2` [Example 102, 1-Amino-14-chloro-N-cyclopropyl-5-isopropyl-5,6,7,8-tetrahydropyrimido[5″,4″:4′,5′]pyrrolo[3′,2′:3,4]azepino[1,2-a]indole-11-carboxamide], for which the negative-log IC50 (pIC50) at RET kinase V804M was 6.32; in assay [1] it was 7.46; in assay [2], 7.07; against RET kinase Wild Type, 6.89; against G810R mutant RET kinase it was 6.12; against G810S mutant RET kinase it was 6.74.

Take `COC(=O)c1ccc(-n2c3c(c4c(N)ncnc42)-c2noc(C4CC4)c2C(O)CC3)cc1` (stereo not drawn) [Example 113, Methyl 4-(11-amino-3-cyclopropyl-4-hydroxy-5,6-dihydroisoxazolo[4″,3″:6′,7′]cyclohepta[1′,2′:4,5]pyrrolo[2,3-d]pyrimidin-7(4H)-yl)benzoate 2,2,2-trifluoroacetate]: the pIC50 at RET kinase V804M is 6.77; in assay [1], 6.29; in assay [2] it was 6.56; at RET kinase Wild Type, 6.99; against G810R mutant RET kinase, 6.97; on G810S mutant RET kinase, 7.20.
